Experiments:
[1] = test system: glucose stimulated insulin secretion; test: Glucose stimulated insulin secretion rate AUC in prediabetic vervet monkeys (FIG. 2); type: in vivo; details: versus untreated
Description: Prediabetic vervet monkeys (fasting plasma glucose levels between 4.0 and 5.5 mM) were treated with 10 ug/kg RX-1 3 times daily with meals for 7 days. Blood samples were collected following 1.75 g/kg oral glucose stimulation at 0, 5, 10, 15, 30, 60, 90, 120 and 180 minutes. AUC values calculated mean glucose stimulated insulin secretion values over the time interval 0-120 min. Four monkeys were used in each group (untreated, RX1-treated).

[2] = test system: gene expression in pancreas; test: Quantitative real-time PCR gene expression in pancreas of obese, insulin resistant Wistar rats; type: in vivo
Description: Three week old male rats were fed a high fat diet for 24 weeks to induce obesity and insulin resistance. Thereafter, rats were treated with 0.3 mg/kg Rx-1 daily for two weeks, and then with 3 mg/kg Rx-1 daily for seven days. Fasting glucose concentrations were measured before treatment, after two weeks treatment with 0.3 mg/kg Rx-1 and then again after seven days treatment with 3 mg/kg Rx-1. After treatment with 3 mg/kg Rx-1 rats were terminated and liver, muscle and pancreas biopsies were taken. Quantitative real-time PCR was used to measure the expression of 12 genes in liver and muscle samples, and ten genes in pancreas samples.
Rats were housed at the Primate Unit (Medical Research Council, South Africa). Rat management including feeding, glucose measurements and terminations, were done according to standard operating procedures (Diabetes Discovery Platform, Medical Research Council). Briefly, three week old rats were fed a high fat diet for 24 weeks to induce T2D. The study group consisted of thirteen rats, eight rats were treated by daily gavage with 0.3 mg/kg Rx-1 for two weeks, and then with 3 mg/kg Rx-1 for seven days. Five rats were used as controls and were treated with water only for three weeks. Rats were terminated after treatment and liver, muscle and pancreas tissue harvested and stored in RNalater (Ambion) as recommended by the manufacturer. The study was approved by the ethics committee of the Medical Research Council of South Africa.
RNA extracted from liver, muscle and pancreas tissue was converted to cDNA using the High Capacity Reverse Transcription kit as recommended by the manufacturers (Applied Biosystems). In brief, 2 μg of DNase-treated RNA was added to nuclease-free water in a volume of 10 μl. Thereafter, 2 μl reaction buffer, 0.8 μl dNTPs, 2 μl random primers, 1 μl RNase-inhibitor, 1 μl reverse transcriptase, and 3.2 μl nuclease-free water were added. The same reaction without the reverse transcription enzyme (minus RT reaction) was set-up to investigate genomic DNA contamination. Reactions were incubated at 25° C. for 10 min, 37° C. for 120 min, and 85° C. for 5 s to inactivate the reverse transcriptase. cDNA samples were stored at −20° C. until expression analysis.
For analysis of gene expression, 25 ng of cDNA prepared from liver, muscle and pancreas was mixed with 12.5 μl Taqman universal PCR master mix (Applied Biosystems), 1.25 μl gene-specific primer and probe mixtures (predeveloped Taqman gene expression assays, Applied Biosystems), and H2O in a final volume of 25 μl. The suffix _m represents an assay whose probe spans an exon-exon junction of the associated gene and therefore will not detect genomic DNA, while the suffix _s represents an assay whose primers and probes are designed within a single exon, such assays will detect genomic DNA.
The PCR reactions were conducted on the ABI 7500 Sequence Detection System Instrument (Applied Biosystems) using universal cycling conditions as described before. All samples were run in duplicate. Data generated on the ABI 7500 Instrument were analysed with the ABI Relative Quantitation (RQ) software (SDS V1.4) using a Ct threshold of 0.1. Relative expression levels were determined by using the 2^−ΔΔCt method, where ΔΔCt=(Ctgene studied−Cthousekeeping gene)treated−(Ctgene studied−Cthousekeeping gene)control. The gene expression was normalised to housekeeping genes to correct for differences in cDNA loading. Two gene expression assays, β-actin (ActB) and glyceraldehyde-3-phosphate dehydrogenase (Gapdh) (Table 1) were used as endogenous controls. Relative gene expression data generated by the RQ software for each of the two endogenous controls individually or the data normalised to the average of the two endogenous controls were imported into Microsoft Excel and analysed. […]

GLP1 = details: blood of treated OB/IR rats; other studies in our laboratory (Louw et al. 2008); cited from earlier work

Structure (SMILES): O=C(O)/C(=C/c1ccccc1)O[C@@H]1O[C@H](CO)[C@@H](O)[C@H](O)[C@H]1O [RX-1, 3-Phenyl-2-(3,4,5-trihydroxy-6-hydroxymethyl-tetrahydro-pyran-2-yloxy)-acrylic acid]
- glycaemic control ([1]; 10 ug/kg 3 times daily for 7 days): better glycaemic control
- decrease of glucose stimulated insulin secretion (AUC 0-120 min) ([1]; 10 ug/kg 3 times daily with meals for 7 days, 1.75 g/kg oral glucose stimulation, FIG. 2): 46%
- Pcsk2 or proconvertase 2 (PC2) mRNA levels [2]: unaffected
- nestin mRNA levels [2]: unaffected
- GLP1R gene expression ([2]; not statistically significant): increased
- Gcg mRNA levels ([2]; not statistically significant): increased
- GcgR mRNA levels ([2]; not statistically significant): increased
- Ins1 gene expression ([2]; not statistically significant): increased
- Ins2 gene expression ([2]; not statistically significant): increased
- Isl1 mRNA levels ([2]; not statistically significant): increased
- Pdx1 gene expression ([2]; not statistically significant): increased
- circulating GLP1 levels (GLP1): increased

Source: patent publication US10174065B2, “Antidiabetic enolic glucoside of phenylpyruvic acid” (ZADEC APS, priority 2010, dated 2019)
